Results as given in ChEMBL document CHEMBL5442175, “EUbOPEN Chemogenomics Library - PDSP Secondary Binding” (2024).
Where a name gives a salt, the structure may show the parent alone.

Columns and labels:
[1] = biological target: T1, Alpha-1B adrenergic receptor (Homo sapiens, UniProt P35368); assay: (§1) PDSP Secondary Binding target: ADRA1B - Compounds are tested at 10 uM concentration, plate are incubated at room temperature in the dark for 90 minutes. Reaction are stopped by vacuum filtration onto 0.3% polyethyleneimine soaked filter mats using Filtermate harvester. Scintillation cocktail is then melted onto microwave-dried filters on a hot plate and the radio activity is counted in Microbia counter.
T1 sequence (P35368 whole entry): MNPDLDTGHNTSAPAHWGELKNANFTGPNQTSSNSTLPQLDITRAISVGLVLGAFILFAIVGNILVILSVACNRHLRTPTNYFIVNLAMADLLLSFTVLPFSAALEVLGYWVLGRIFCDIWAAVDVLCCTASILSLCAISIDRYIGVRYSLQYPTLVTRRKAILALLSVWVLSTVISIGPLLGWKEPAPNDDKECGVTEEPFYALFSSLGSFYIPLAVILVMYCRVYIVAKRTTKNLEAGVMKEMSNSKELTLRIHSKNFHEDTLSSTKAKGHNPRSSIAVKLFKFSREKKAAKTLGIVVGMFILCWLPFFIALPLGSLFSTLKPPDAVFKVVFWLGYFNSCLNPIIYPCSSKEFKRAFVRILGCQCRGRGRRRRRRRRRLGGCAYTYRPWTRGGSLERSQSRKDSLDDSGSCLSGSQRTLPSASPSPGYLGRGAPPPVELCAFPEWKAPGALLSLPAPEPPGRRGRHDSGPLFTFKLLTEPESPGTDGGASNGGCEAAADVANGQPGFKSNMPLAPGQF

[2] = biological target: T2, Alpha-1A adrenergic receptor (Homo sapiens, UniProt P35348); assay: as §1, with “ADRA1A” for “ADRA1B”
T2 sequence (P35348 whole entry): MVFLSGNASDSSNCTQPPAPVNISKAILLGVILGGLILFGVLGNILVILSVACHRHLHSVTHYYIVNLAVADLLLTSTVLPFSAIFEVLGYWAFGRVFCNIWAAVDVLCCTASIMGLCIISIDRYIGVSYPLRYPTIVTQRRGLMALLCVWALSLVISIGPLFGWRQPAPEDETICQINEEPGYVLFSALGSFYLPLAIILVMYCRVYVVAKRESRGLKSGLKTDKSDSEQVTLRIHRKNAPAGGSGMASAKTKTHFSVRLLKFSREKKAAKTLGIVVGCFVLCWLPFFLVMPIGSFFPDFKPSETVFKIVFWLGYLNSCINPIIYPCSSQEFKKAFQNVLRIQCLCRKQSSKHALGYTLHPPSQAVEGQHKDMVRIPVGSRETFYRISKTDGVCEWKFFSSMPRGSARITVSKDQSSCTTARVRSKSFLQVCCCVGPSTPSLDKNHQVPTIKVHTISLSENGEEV

[3] = biological target: T3, Alpha-2A adrenergic receptor (Homo sapiens, UniProt P08913); assay: as §1, with “ADRA2A” for “ADRA1B”
T3 sequence (P08913 whole entry): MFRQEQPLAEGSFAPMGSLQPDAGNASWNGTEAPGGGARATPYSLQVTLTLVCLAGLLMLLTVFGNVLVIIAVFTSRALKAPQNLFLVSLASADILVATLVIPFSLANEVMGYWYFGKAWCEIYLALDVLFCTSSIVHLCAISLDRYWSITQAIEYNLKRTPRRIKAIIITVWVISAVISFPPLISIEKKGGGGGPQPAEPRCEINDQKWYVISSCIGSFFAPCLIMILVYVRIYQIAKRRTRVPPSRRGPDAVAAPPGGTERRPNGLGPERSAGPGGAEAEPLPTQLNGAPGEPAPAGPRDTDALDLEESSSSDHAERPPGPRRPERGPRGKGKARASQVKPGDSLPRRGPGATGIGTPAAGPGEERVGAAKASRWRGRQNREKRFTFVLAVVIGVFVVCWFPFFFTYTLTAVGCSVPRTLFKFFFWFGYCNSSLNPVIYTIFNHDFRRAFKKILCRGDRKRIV

[4] = biological target: 5-hydroxytryptamine receptor 1B (Homo sapiens, UniProt P28222); assay: as §1, with “HTR1B” for “ADRA1B”
Sequence of 5-hydroxytryptamine receptor 1B (P28222 whole entry): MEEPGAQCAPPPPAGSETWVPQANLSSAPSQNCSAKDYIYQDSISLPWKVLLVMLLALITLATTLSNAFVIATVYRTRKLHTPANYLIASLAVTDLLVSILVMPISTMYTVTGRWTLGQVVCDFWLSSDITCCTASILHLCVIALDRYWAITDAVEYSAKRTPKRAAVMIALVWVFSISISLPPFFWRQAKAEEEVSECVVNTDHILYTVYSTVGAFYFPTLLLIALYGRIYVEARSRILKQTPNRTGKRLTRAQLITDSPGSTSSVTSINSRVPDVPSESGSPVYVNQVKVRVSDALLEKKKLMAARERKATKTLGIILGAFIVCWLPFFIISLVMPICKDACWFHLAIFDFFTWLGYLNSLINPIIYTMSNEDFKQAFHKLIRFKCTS

[5] = biological target: T4, 5-hydroxytryptamine receptor 2C (Homo sapiens, UniProt P28335); assay: as §1, with “HTR2C” for “ADRA1B”
T4 sequence (P28335 whole entry): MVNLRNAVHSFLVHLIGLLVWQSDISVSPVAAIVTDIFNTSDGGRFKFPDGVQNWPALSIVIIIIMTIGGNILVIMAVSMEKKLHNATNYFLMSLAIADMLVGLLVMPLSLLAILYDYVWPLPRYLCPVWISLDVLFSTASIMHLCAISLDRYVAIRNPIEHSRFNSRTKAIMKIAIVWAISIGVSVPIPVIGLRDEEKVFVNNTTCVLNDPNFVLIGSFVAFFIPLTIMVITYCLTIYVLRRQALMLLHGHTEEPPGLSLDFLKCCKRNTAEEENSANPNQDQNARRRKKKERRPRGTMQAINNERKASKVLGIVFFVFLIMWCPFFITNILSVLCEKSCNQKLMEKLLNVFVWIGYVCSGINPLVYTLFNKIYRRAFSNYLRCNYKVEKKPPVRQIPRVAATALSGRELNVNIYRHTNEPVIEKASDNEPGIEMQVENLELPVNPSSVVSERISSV

[6] = biological target: 5-hydroxytryptamine receptor 5A (Homo sapiens, UniProt P47898); assay: as §1, with “HTR5A” for “ADRA1B”
Sequence of 5-hydroxytryptamine receptor 5A (P47898 whole entry): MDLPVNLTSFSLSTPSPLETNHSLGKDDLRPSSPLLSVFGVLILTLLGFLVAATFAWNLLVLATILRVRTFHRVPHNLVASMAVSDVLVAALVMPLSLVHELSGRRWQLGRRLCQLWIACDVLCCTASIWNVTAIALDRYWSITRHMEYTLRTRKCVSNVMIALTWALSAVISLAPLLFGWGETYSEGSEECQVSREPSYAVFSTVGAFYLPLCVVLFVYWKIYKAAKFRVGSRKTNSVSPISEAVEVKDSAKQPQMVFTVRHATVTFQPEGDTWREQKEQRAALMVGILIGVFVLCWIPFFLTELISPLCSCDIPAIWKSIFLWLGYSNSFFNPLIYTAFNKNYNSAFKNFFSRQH

[7] = biological target: 5-hydroxytryptamine receptor 6 (Homo sapiens, UniProt P50406); assay: as §1, with “HTR6” for “ADRA1B”
Sequence of 5-hydroxytryptamine receptor 6 (P50406 whole entry): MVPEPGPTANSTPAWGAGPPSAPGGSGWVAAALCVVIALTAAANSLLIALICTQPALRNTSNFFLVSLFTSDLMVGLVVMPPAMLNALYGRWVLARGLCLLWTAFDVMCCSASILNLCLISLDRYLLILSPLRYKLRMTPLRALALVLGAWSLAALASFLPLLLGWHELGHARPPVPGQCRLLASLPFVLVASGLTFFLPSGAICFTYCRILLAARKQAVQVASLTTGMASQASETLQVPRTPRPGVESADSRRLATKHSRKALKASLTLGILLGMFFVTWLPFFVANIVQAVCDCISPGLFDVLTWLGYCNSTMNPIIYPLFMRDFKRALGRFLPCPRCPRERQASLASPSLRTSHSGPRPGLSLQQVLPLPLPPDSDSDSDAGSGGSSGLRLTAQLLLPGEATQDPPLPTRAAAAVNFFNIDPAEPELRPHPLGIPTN

D(3) dopamine receptor = D(3) dopamine receptor (Homo sapiens, UniProt P35462); assay: as §1, with “DRD3” for “ADRA1B”
Sequence of D(3) dopamine receptor (P35462 whole entry): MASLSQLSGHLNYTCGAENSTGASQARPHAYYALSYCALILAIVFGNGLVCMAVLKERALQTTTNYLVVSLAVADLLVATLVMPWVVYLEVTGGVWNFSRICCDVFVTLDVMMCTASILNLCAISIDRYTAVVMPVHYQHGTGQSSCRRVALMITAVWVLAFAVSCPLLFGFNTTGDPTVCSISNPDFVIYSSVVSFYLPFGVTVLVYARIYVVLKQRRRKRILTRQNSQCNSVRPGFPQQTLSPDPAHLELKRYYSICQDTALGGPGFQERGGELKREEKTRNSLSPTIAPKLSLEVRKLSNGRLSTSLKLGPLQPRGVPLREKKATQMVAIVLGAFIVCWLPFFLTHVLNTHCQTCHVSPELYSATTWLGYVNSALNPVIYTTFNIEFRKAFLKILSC

[8] = biological target: Sigma non-opioid intracellular receptor 1 (Homo sapiens, UniProt Q99720); assay: as §1, with “SIGMAR1” for “ADRA1B”
Sequence of Sigma non-opioid intracellular receptor 1 (Q99720 whole entry): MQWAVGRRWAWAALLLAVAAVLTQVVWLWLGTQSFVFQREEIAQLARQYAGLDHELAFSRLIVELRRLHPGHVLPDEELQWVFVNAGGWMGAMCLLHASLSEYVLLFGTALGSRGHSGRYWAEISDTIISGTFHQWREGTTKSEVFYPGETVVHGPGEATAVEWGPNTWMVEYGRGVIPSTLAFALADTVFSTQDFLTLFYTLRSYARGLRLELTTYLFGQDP

[9] = biological target: 5-hydroxytryptamine receptor 1D (Homo sapiens, UniProt P28221); assay: as §1, with “HTR1D” for “ADRA1B”
Sequence of 5-hydroxytryptamine receptor 1D (P28221 whole entry): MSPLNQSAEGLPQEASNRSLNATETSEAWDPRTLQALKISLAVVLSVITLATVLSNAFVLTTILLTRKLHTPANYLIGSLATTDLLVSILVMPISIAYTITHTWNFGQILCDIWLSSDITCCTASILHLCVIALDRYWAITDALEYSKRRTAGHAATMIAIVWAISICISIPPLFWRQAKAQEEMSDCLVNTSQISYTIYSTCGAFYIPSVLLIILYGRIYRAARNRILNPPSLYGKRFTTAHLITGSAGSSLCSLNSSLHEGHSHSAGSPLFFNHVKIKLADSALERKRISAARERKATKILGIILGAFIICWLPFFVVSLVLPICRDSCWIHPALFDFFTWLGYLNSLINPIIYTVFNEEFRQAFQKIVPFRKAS

| SMILES | Ki [1] | Ki [2] | Ki [3] | Ki [4] | Ki [5] | Ki [6] | Ki [7] | Ki (D(3) dopamine receptor) | Ki [8] | Ki [9] |
| --- | --- | --- | --- | --- | --- | --- | --- | --- | --- | --- |
| S=C(NCCCc1c[nH]cn1)NCCCN(Cc1ccc(Cl)c(Cl)c1)c1ccc(Br)cn1 | 2.03 µM | 0.513 µM | 0.178 µM | 1.04 µM | 0.251 µM | 1.55 µM | 1.33 µM | 0.641 µM |  |  |
| Cc1c(P(=S)(c2ccccc2)c2ccccc2)n2ccccc2[n+]1C/C=C/c1ccccc1 |  |  | 0.568 µM |  |  |  |  |  | 0.816 µM |  |
| COc1cc(-n2cnc3cc(-c4ccc(Cl)cc4)sc3c2=O)ccc1OCCN1CCCC1 |  |  | 2.94 µM |  | 0.893 µM | 0.557 µM |  | 0.768 µM | 0.012 µM | 3.56 µM |
| Clc1cccc(COc2cncc(N3CCNCC3)n2)c1 |  |  |  | 1.66 µM | 0.00945 µM |  |  | 0.284 µM | 0.0327 µM | 0.0695 µM |
| CN1CCN(c2ccc(Nc3c4ccccc4nc4ccccc34)cc2)CC1 | 2.72 µM | 1.58 µM |  |  |  |  | 0.378 µM |  | 0.412 µM | 1.62 µM |
| COc1ccc(NC(=O)c2ccc(-c3ccc(-c4noc(C)n4)cc3C)cc2)cc1OCCN(C)C |  |  | 0.44 µM | 0.00118 µM | 0.264 µM | 1.16 µM |  |  | 3.11 µM | 0.015 µM |
| CCc1ccc(OCc2ccccc2C(=O)Nc2ccc3nc(C)cc(N)c3c2)cc1 | 3.54 µM |  |  |  | 0.328 µM | 2.45 µM |  |  | 2.28 µM | 2.78 µM |
| CN1CCCC(n2nc(Cc3ccc(Cl)cc3)c3ccccc3c2=O)CC1 (configuration not stated) [AZELASTINE HYDROCHLORIDE] | 3.64 µM | 0.496 µM | 1.45 µM | 4.23 µM |  |  | 2.09 µM | 0.636 µM | 0.15 µM | 0.885 µM |
| O=c1ccc2ccc(OCCCCN3CCN(c4cccc5sccc45)CC3)cc2[nH]1 [BREXPIPRAZOLE] | 0.0579 µM | 0.0293 µM | 0.212 µM | 0.0426 µM | 0.0605 µM | 0.178 µM | 0.308 µM | 0.0104 µM |  | 0.024 µM |
| CN(C)C(=O)N[C@H]1CC[C@H](CCN2CCN(c3cccc(Cl)c3Cl)CC2)CC1 [CARIPRAZINE HYDROCHLORIDE] | 1.97 µM |  | 1.74 µM | 0.129 µM | 1.25 µM | 3.29 µM | 1.3 µM |  |  | 0.0768 µM |
| CN1C[C@H](C(=O)N[C@]2(C)O[C@@]3(O)[C@@H]4CCCN4C(=O)[C@H](Cc4ccccc4)N3C2=O)C[C@@H]2c3cccc4[nH]cc(c34)C[C@H]21 [DIHYDROERGOTAMINE MESYLATE] | 0.119 µM | 0.0329 µM |  | 0.108 µM | 0.214 µM | 0.0313 µM | 0.225 µM | 0.034 µM | 0.604 µM |  |
| O=S1(=O)c2cccc3cccc(c23)N1CCCN1CCN(c2ccc(F)cc2)CC1 [FANANSERIN] | 0.847 µM | 0.195 µM | 2.02 µM |  |  | 6.73 µM | 5.11 µM | 1.02 µM | 0.696 µM |  |
| Cc1ccc2c(c1)c1c(n2CCc2ccc(C)nc2)CCN(C)C1 [LATREPIRDINE] | 1.31 µM | 0.414 µM | 0.729 µM |  |  | 0.107 µM | 0.144 µM | 0.461 µM | 1.31 µM | 0.419 µM |
| CCc1nn(CCCN2CCN(c3cccc(Cl)c3)CC2)c(=O)n1CCOc1ccccc1 [NEFAZODONE HYDROCHLORIDE] | 0.572 µM | 0.137 µM |  | 0.262 µM |  | 1.09 µM | 1.11 µM | 0.38 µM |  | 0.122 µM |
| COC(=O)C1=C(C)NC(C)=C(C(=O)OCCCN2CCC(c3ccccc3)(c3ccccc3)CC2)[C@H]1c1cccc([N+](=O)[O-])c1 [NIGULDIPINE] |  |  |  | 0.366 µM | 1.85 µM | 0.431 µM | 0.878 µM | 0.425 µM | 0.32 µM |  |
| Cc1nc2sccn2c(=O)c1CCN1CCC(=C(c2ccc(F)cc2)c2ccc(F)cc2)CC1 [RITANSERIN] | 0.598 µM | 0.172 µM | 0.367 µM | 0.281 µM | 0.00409 µM | 0.102 µM | 0.287 µM | 0.0355 µM | 0.426 µM |  |
| OCc1cc(C(O)CNCCCCCCOCCCCc2ccccc2)ccc1O (configuration not stated) [SALMETEROL] |  | 0.549 µM | > 10 µM | 1.99 µM | 4.09 µM |  |  | 1.26 µM |  | 1.04 µM |
| Cc1nc(-c2ccc(-c3ccc(C(=O)N4CCc5cc6c(cc54)C4(CCN(C)CC4)CO6)cc3)c(C)c2)no1 [SB-224289] |  |  | 2.43 µM |  | 0.859 µM |  |  |  | 4.34 µM |  |
| C[C@H](Cc1cc2c(c(C(N)=O)c1)N(CCCO)CC2)NCCOc1ccccc1OCC(F)(F)F [SILODOSIN] | 0.196 µM | 0.0303 µM | 0.683 µM | 0.373 µM |  |  |  | 0.0716 µM |  | 0.0917 µM |
| CCCCCNC(=N)N/N=C/c1c[nH]c2ccc(OC)cc12 [TEGASEROD MALEATE] | 2.61 µM | 1.63 µM |  |  | 0.142 µM | 0.201 µM | 0.566 µM | 0.426 µM | 0.177 µM | 0.0501 µM |
| N#Cc1ccc2[nH]cc(CCCCN3CCN(c4ccc5oc(C(N)=O)cc5c4)CC3)c2c1 [VILAZODONE HYDROCHLORIDE] | 2.9 µM | 0.278 µM | 2.49 µM | 1.24 µM |  |  | 0.96 µM | 0.133 µM | 0.0142 µM | 0.369 µM |
